Values quoted from earlier work in patent US20190029235A1, “EFFICIENT, SCALABLE PATIENT-DERIVED XENOGRAFT SYSTEM BASED ON A CHICK CHORIOALLANTOIC MEMBRANE (CAM) IN VIVO MODEL” (Baylor College of Medicine, priority 2015, published 2019).

Columns and labels:
[1] = test system: BCM-2147 breast cancer PDX line; conditions: PDX line BCM-2147, tumor source Pre-treat Bx, mouse-based breast cancer PDX
[2] = test system: BCM-6257 breast cancer PDX line; conditions: PDX line BCM-6257, tumor source Pre-treat Bx, mouse-based breast cancer PDX
[3] = test system: BCM-4013 breast cancer PDX line; conditions: PDX line BCM-4013, tumor source Pre-treat Bx, mouse-based breast cancer PDX

| Compound | Treatment Response [1] | Treatment Response [2] | Treatment Response [3] |
| --- | --- | --- | --- |
| N.N.O=C([O-])C1(C(=O)[O-])CCC1.[Pt+2] [Carboplatin, carboplatin] | Sensitive | Sensitive | Resistant |
| CC(=O)O[C@@]12CO[C@@H]1C[C@H](O)[C@@]1(C)C(=O)[C@H](O)C3=C(C)[C@@H](OC(=O)[C@H](O)[C@@H](NC(=O)OC(C)(C)C)c4ccccc4)C[C@@](O)([C@@H](OC(=O)c4ccccc4)[C@H]21)C3(C)C [Docetaxel, docetaxel] | Resistant | Sensitive | Resistant |
| COc1cccc2c1C(=O)c1c(O)c3c(c(O)c1C2=O)C[C@@](O)(C(=O)CO)C[C@@H]3O[C@H]1C[C@H](N)[C@H](O)[C@H](C)O1 [Doxorubicin, doxorubicin] | Resistant | Resistant | Resistant |
